Consider 1 molecule from patent EP0192327A2, “Use of phosphonoformic acid and its esters and salts for the manufacture of a medicament for the treatment of AIDS” (THE WELLCOME FOUNDATION LIMITED, priority 1985, dated 1986).

One series deals with HTLV-III. The experiment in a line: Antiviral activity: protection of target T cells against the cytopathic effects of HTLV-III. In kind it is cell-based. The note with it: Human immunodeficiency virus 1, T-cell; target T cells infected with HTLV-III; protection at 10µM and above; read-out: concentrations found to protect target T cells against the cytopathic effects of HTLV-III. The procedure:
The compound of formula (1) in which R^1, R^2 and R^3 each represent a hydrogen atom was tested and found to protect target T cells against the cytopathic effects of HTLV-III at concentrations of 10µM and above.
(In general: Cytopathic effects are the visible damage that an infection or toxin causes in cultured cells.)

Series [1] is described as follows: Toxicity: cytotoxicity in FE-10 cells. It counts as cell-based. The note with it: FE-10 (mouse modified 3T3) cells, no cytotoxicity up to 100µM, read-out: concentrations at which no cytotoxicity was observed.

For the molecule `O=C(O)P(=O)(O)O` [phosphonoformic acid], in the series on HTLV-III, the minimal effective concentration was at least 10 µM. For the same molecule, the MNTC in series [1] is at least 100 µM.
